Common to all, as to format: cell-based
Experiment [1] relates to IL-2 secretion from T cells in human whole blood. To be noted: read-out: WB (IL-2) IC50 (nM, Avg).
In the next experiment the target is hKv1.3 (Homo sapiens, UniProt P22001). Kind of experiment: cell-based. The settings on record: Kv1.3 (IWQ) IC50 (nM, Avg).
Experiment [2] deals with IFN-g secretion from T cells in human whole blood. To be noted: read-out: WB (IFNg) IC50 (nM, Avg).

Chain of hKv1.3 (P22001 whole entry): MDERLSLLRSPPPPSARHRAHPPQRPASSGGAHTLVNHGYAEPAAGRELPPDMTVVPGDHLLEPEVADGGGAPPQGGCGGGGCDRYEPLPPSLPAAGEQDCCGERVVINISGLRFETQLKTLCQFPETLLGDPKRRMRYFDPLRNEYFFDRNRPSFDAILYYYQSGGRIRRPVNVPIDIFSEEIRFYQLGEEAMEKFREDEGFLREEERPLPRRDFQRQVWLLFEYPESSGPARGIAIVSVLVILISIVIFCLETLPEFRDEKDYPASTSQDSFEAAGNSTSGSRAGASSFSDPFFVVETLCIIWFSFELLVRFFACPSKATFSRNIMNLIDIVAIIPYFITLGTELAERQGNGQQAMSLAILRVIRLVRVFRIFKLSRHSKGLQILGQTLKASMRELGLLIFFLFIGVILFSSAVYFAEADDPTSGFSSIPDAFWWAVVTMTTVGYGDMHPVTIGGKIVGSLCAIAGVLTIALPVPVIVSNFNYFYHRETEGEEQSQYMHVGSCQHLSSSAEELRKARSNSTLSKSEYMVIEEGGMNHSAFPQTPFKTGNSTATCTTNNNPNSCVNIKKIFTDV

One may read the IC50 as the point on the concentration scale where inhibition reaches its midpoint. On to `CC[C@H](C)[C@@H]1NC(=O)[C@@H](NC(=O)[C@H](CO)NC(=O)[C@@H](N)CCCNC(=N)N)CSSC[C@@H](C(=O)O)NC(=O)[C@H]([C@@H](C)O)NC(=O)CNC(=O)[C@@H]2CSSC[C@@H]3NC(=O)[C@H](CCC(N)=O)NC(=O)[C@H](Cc4ccccc4)NC(=O)[C@H](C)NC(=O)[C@H]([C@@H](C)O)NC(=O)[C@H](CSSC[C@H](NC(=O)[C@H](Cc4ccccc4)NC(=O)[C@H](CO)NC(=O)[C@H](CC(C)C)NC(=O)[C@H](CCCNC(=N)N)NC(=O)[C@H](Cc4ccc(O)cc4)NC(=O)[C@H](CCCCN)NC(=O)[C@H](CCSC)NC(=O)[C@H](CO)NC(=O)[C@H](Cc4c[nH]cn4)NC(=O)[C@H](CCCCN)NC3=O)C(=O)N[C@@H](CCCNC(=N)N)C(=O)N[C@@H](CCCCN)C(=O)N[C@@H]([C@@H](C)O)C(=O)N2)NC(=O)[C@H](CCCNC(=N)N)NC(=O)[C@H](CO)NC(=O)[C@H](CCCCN)NC(=O)[C@@H]2CCCN2C(=O)[C@H](CCCCN)NC(=O)[C@H]([C@@H](C)O)NC(=O)[C@H](CC(=O)O)NC1=O` [[Lys7]ShK], for which the half-maximal inhibitory concentration (IC50) in experiment [1] amounted to 4.67 nM; against hKv1.3, 0.792 nM; in experiment [2], 13.5 nM.

As to `CC[C@H](C)[C@@H]1NC(=O)[C@@H](NC(=O)[C@H](CO)NC(=O)[C@@H](N)CCCNC(=N)N)CSSC[C@@H](C(=O)O)NC(=O)[C@H]([C@@H](C)O)NC(=O)CNC(=O)[C@@H]2CSSC[C@@H]3NC(=O)[C@H](CCC(N)=O)NC(=O)[C@H](Cc4ccccc4)NC(=O)[C@H](C)NC(=O)[C@H]([C@@H](C)O)NC(=O)[C@H](CSSC[C@H](NC(=O)[C@H](Cc4ccccc4)NC(=O)[C@H](CO)NC(=O)[C@H](CC(C)C)NC(=O)[C@H](CCCNC(=N)N)NC(=O)[C@H](Cc4ccc(O)cc4)NC(=O)[C@H](CCCCN)NC(=O)[C@H](CCSC)NC(=O)[C@H](CO)NC(=O)[C@H](Cc4c[nH]cn4)NC(=O)[C@H](CCCCN)NC3=O)C(=O)N[C@@H](CCCNC(=N)N)C(=O)N[C@@H](CCCCN)C(=O)N[C@@H]([C@@H](C)O)C(=O)N2)NC(=O)[C@H](CCCNC(=N)N)NC(=O)[C@H](CCCCN)NC(=O)[C@H](CCCCN)NC(=O)[C@@H]2CCCN2C(=O)[C@H]([C@@H](C)CC)NC(=O)[C@H]([C@@H](C)O)NC(=O)[C@H](CC(=O)O)NC1=O` [[Lys10]ShK], the IC50 turned out to be 0.052 nM in experiment [1], 0.174 nM at hKv1.3 and 0.082 nM in experiment [2].

For the compound `CC[C@H](C)[C@@H]1NC(=O)[C@@H](NC(=O)[C@H](CO)NC(=O)[C@@H](N)CCCNC(=N)N)CSSC[C@@H](C(=O)O)NC(=O)[C@H]([C@@H](C)O)NC(=O)CNC(=O)[C@@H]2CSSC[C@@H]3NC(=O)[C@H](CCC(N)=O)NC(=O)[C@H](Cc4ccccc4)NC(=O)[C@H](C)NC(=O)[C@H](CCCCN)NC(=O)[C@H](CSSC[C@H](NC(=O)[C@H](Cc4ccccc4)NC(=O)[C@H](CO)NC(=O)[C@H](CC(C)C)NC(=O)[C@H](CCCNC(=N)N)NC(=O)[C@H](Cc4ccc(O)cc4)NC(=O)[C@H](CCCCN)NC(=O)[C@H](CCSC)NC(=O)[C@H](CO)NC(=O)[C@H](Cc4c[nH]cn4)NC(=O)[C@H](CCCCN)NC3=O)C(=O)N[C@@H](CCCNC(=N)N)C(=O)N[C@@H](CCCCN)C(=O)N[C@@H]([C@@H](C)O)C(=O)N2)NC(=O)[C@H](CCCNC(=N)N)NC(=O)[C@H](CO)NC(=O)[C@H](CCCCN)NC(=O)[C@@H]2CCCN2C(=O)[C@H]([C@@H](C)CC)NC(=O)[C@H]([C@@H](C)O)NC(=O)[C@H](CC(=O)O)NC1=O` [[Lys13]ShK], the IC50 is 0.257 nM in experiment [1], 0.157 nM against hKv1.3 and 0.363 nM in experiment [2].

With `CC[C@H](C)[C@@H]1NC(=O)[C@@H](NC(=O)[C@H](CO)NC(=O)[C@@H](N)CCCNC(=N)N)CSSC[C@@H](C(=O)O)NC(=O)[C@H]([C@@H](C)O)NC(=O)CNC(=O)[C@@H]2CSSC[C@@H]3NC(=O)[C@H](CCC(N)=O)NC(=O)[C@H](Cc4ccccc4)NC(=O)[C@H](CCCCN)NC(=O)[C@H]([C@@H](C)O)NC(=O)[C@H](CSSC[C@H](NC(=O)[C@H](Cc4ccccc4)NC(=O)[C@H](CO)NC(=O)[C@H](CC(C)C)NC(=O)[C@H](CCCNC(=N)N)NC(=O)[C@H](Cc4ccc(O)cc4)NC(=O)[C@H](CCCCN)NC(=O)[C@H](CCSC)NC(=O)[C@H](CO)NC(=O)[C@H](Cc4c[nH]cn4)NC(=O)[C@H](CCCCN)NC3=O)C(=O)N[C@@H](CCCNC(=N)N)C(=O)N[C@@H](CCCCN)C(=O)N[C@@H]([C@@H](C)O)C(=O)N2)NC(=O)[C@H](CCCNC(=N)N)NC(=O)[C@H](CO)NC(=O)[C@H](CCCCN)NC(=O)[C@@H]2CCCN2C(=O)[C@H]([C@@H](C)CC)NC(=O)[C@H]([C@@H](C)O)NC(=O)[C@H](CC(=O)O)NC1=O` [[Lys14]ShK], the IC50 in experiment [1] worked out at 0.075 nM; at hKv1.3 it was 0.073 nM; in experiment [2], 0.202 nM.

As for `CC[C@H](C)[C@@H]1NC(=O)[C@@H](NC(=O)[C@H](CO)NC(=O)[C@@H](N)CCCNC(=N)N)CSSC[C@@H](C(=O)O)NC(=O)[C@H]([C@@H](C)O)NC(=O)CNC(=O)[C@@H]2CSSC[C@@H]3NC(=O)[C@H](CCC(N)=O)NC(=O)[C@H](CCCCN)NC(=O)[C@H](C)NC(=O)[C@H]([C@@H](C)O)NC(=O)[C@H](CSSC[C@H](NC(=O)[C@H](Cc4ccccc4)NC(=O)[C@H](CO)NC(=O)[C@H](CC(C)C)NC(=O)[C@H](CCCNC(=N)N)NC(=O)[C@H](Cc4ccc(O)cc4)NC(=O)[C@H](CCCCN)NC(=O)[C@H](CCSC)NC(=O)[C@H](CO)NC(=O)[C@H](Cc4c[nH]cn4)NC(=O)[C@H](CCCCN)NC3=O)C(=O)N[C@@H](CCCNC(=N)N)C(=O)N[C@@H](CCCCN)C(=O)N[C@@H]([C@@H](C)O)C(=O)N2)NC(=O)[C@H](CCCNC(=N)N)NC(=O)[C@H](CO)NC(=O)[C@H](CCCCN)NC(=O)[C@@H]2CCCN2C(=O)[C@H]([C@@H](C)CC)NC(=O)[C@H]([C@@H](C)O)NC(=O)[C@H](CC(=O)O)NC1=O` [[Lys15]ShK], the IC50 in experiment [1] was 0.465 nM; against hKv1.3 it was 0.295 nM; in experiment [2], 0.991 nM.

For the compound `CC[C@H](C)[C@@H]1NC(=O)[C@@H](NC(=O)[C@H](CO)NC(=O)[C@@H](N)CCCNC(=N)N)CSSC[C@@H](C(N)=O)NC(=O)[C@H]([C@@H](C)O)NC(=O)CNC(=O)[C@@H]2CSSC[C@@H]3NC(=O)[C@H](CCCCN)NC(=O)[C@H](Cc4ccccc4)NC(=O)[C@H](C)NC(=O)[C@H]([C@@H](C)O)NC(=O)[C@H](CSSC[C@H](NC(=O)[C@H](Cc4cccc5ccccc45)NC(=O)[C@H](CO)NC(=O)[C@H](CC(C)C)NC(=O)[C@H](CCCNC(=N)N)NC(=O)[C@H](Cc4ccc(O)cc4)NC(=O)[C@H](CCCCN)NC(=O)[C@H](CCSC)NC(=O)[C@H](CO)NC(=O)[C@H](Cc4c[nH]cn4)NC(=O)[C@H](CCCCN)NC3=O)C(=O)N[C@@H](CCCNC(=N)N)C(=O)N[C@@H](CCCCN)C(=O)N[C@@H]([C@@H](C)O)C(=O)N2)NC(=O)[C@H](CCCNC(=N)N)NC(=O)[C@H](CO)NC(=O)[C@H](CCCCN)NC(=O)[C@@H]2CCCN2C(=O)[C@H]([C@@H](C)CC)NC(=O)[C@H]([C@@H](C)O)NC(=O)[C@H](CC(=O)O)NC1=O` [[Lys16,1-Na127]ShK-amide], the IC50 stood at 3.95 nM in experiment [1], 0.299 nM at hKv1.3 and 2.94 nM in experiment [2].

For the compound `CC[C@H](C)[C@@H]1NC(=O)[C@@H](NC(=O)[C@H](CO)NC(=O)[C@@H](N)CCCNC(=N)N)CSSC[C@@H](C(=O)O)NC(=O)[C@H]([C@@H](C)O)NC(=O)CNC(=O)[C@@H]2CSSC[C@@H]3NC(=O)[C@H](CCCCN)NC(=O)[C@H](Cc4ccccc4)NC(=O)[C@H](C)NC(=O)[C@H]([C@@H](C)O)NC(=O)[C@H](CSSC[C@H](NC(=O)[C@H](Cc4cccc5ccccc45)NC(=O)[C@H](CO)NC(=O)[C@H](CC(C)C)NC(=O)[C@H](CCCNC(=N)N)NC(=O)[C@H](Cc4ccc(O)cc4)NC(=O)[C@H](CCCCN)NC(=O)[C@H](CCSC)NC(=O)[C@H](CO)NC(=O)[C@H](Cc4c[nH]cn4)NC(=O)[C@H](CCCCN)NC3=O)C(=O)N[C@@H](CCCNC(=N)N)C(=O)N[C@@H](CCCCN)C(=O)N[C@@H]([C@@H](C)O)C(=O)N2)NC(=O)[C@H](CCCNC(=N)N)NC(=O)[C@H](CO)NC(=O)[C@H](CCCCN)NC(=O)[C@@H]2CCCN2C(=O)[C@H]([C@@H](C)CC)NC(=O)[C@H]([C@@H](C)O)NC(=O)[C@H](CC(=O)O)NC1=O` [[Lys16,1-Na127]ShK], the IC50 in experiment [1] is 0.924 nM; on hKv1.3, 0.113 nM; in experiment [2], 5.68 nM.

With `CC[C@H](C)[C@@H]1NC(=O)[C@@H](NC(=O)[C@H](CO)NC(=O)[C@@H](N)CCCNC(=N)N)CSSC[C@@H](C(N)=O)NC(=O)[C@H]([C@@H](C)O)NC(=O)CNC(=O)[C@@H]2CSSC[C@@H]3NC(=O)[C@H](CCCCN)NC(=O)[C@H](Cc4ccccc4)NC(=O)[C@H](C)NC(=O)[C@H]([C@@H](C)O)NC(=O)[C@H](CSSC[C@H](NC(=O)[C@H](Cc4ccccc4)NC(=O)[C@H](Cc4ccc5ccccc5c4)NC(=O)[C@H](CC(C)C)NC(=O)[C@H](CCCNC(=N)N)NC(=O)[C@H](Cc4ccc(O)cc4)NC(=O)[C@H](CCCCN)NC(=O)[C@H](CCSC)NC(=O)[C@H](CO)NC(=O)[C@H](Cc4c[nH]cn4)NC(=O)[C@H](CCCCN)NC3=O)C(=O)N[C@@H](CCCCN)C(=O)N[C@@H](CCCCN)C(=O)N[C@@H]([C@@H](C)O)C(=O)N2)NC(=O)[C@H](CCCNC(=N)N)NC(=O)[C@H](CO)NC(=O)[C@H](CCCCN)NC(=O)[C@@H]2CCCN2C(=O)[C@H]([C@@H](C)CC)NC(=O)[C@H]([C@@H](C)O)NC(=O)[C@H](CC(=O)O)NC1=O` [[Lys16,29;2-Na126]ShK-amide], the IC50 in experiment [1] amounted to 0.222 nM; against hKv1.3, 0.762 nM; in experiment [2], 0.148 nM.

Source of the values: patent US20120121591A1 (priority 2009, published 2012).
